The values that follow come from patent publication US12187728B2 (Raze Therapeutics, Inc., priority 2015, dated 2025).

This assay concerns the target T1, Human MTHFD2 (Homo sapiens, UniProt P13995).
T1 construct: residues 36-350 in Uniport ID P13995; His6 (N); made in house; host or cells: E. coli
T1 sequence (P13995 36-350): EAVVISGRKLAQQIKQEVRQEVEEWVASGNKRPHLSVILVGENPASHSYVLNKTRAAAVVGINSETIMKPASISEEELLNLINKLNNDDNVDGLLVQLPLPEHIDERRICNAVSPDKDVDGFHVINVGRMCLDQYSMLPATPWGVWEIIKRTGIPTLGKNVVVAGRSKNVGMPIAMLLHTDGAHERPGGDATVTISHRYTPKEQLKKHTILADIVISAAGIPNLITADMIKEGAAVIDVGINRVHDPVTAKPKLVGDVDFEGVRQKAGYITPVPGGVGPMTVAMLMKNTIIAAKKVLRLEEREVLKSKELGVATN
The assay can be described thus: MTHFD2 Activity Assay (dehydrogenase activity, diaphorase/resazurin coupled fluorescence). To be noted: inhibitory activity (IC50 and/or binding constant); 0.2 nM MTHFD2, 11 concentrations. In kind it is biochemical. In outline: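 Resorufin fluorescence (ex 525, em 598 nm) reports NADH formed by the dehydrogenase via diaphorase coupling. Enzyme (0.2 nM, residues 36-350, N-His6) sat with compound 15 min before 70 μM CH2-THF and 1 mM NAD+ started a 30 min reaction. IC50s come from 4-parameter fits over 11 concentrations.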
For orientation: IC50 means the concentration that gives 50% inhibition. Lower therefore signals higher potency. `COC(=O)c1cc(Cn2c(=O)c3c(nc(NCCCO)n3C)n(C)c2=O)ccc1Cl` [Example 165, Methyl 2-chloro-5-({8-[(3-hydroxypropyl)amino]-3,7-dimethyl-2,6-dioxo-2,3,6,7-tetrahydro-1H-purin-1-yl}methyl)benzoate] displayed an IC50 of 1 to 5 µM. For `Cn1c(C(O)c2ccccc2)nc2c1c(=O)n(Cc1cc3c(Cl)cccc3[nH]1)c(=O)n2C` (centres unmarked) [Example 388, 1-((4-chloro-1H-indol-2-yl)methyl)-8-(hydroxy(phenyl)methyl)-3,7-dimethyl-1H-purine-2,6(3H,7H)-dione] the value was 0.01 to 1 µM; for `Cn1c(N[C@H]2CCCNC2)nc2c1c(=O)n(Cc1ccc(Cl)c(Cl)c1)c(=O)n2C` [Example 68, 1-[(3,4-dichlorophenyl)methyl]-3,7-dimethyl-8-{[(3S)-piperidin-3-yl]amino}-2,3,6,7-tetrahydro-1H-purine-2,6-dione], 1 to 5 µM; for `Cn1c(Nc2cn[nH]c2)nc2c1c(=O)n(Cc1ccc(Cl)c(Cl)c1)c(=O)n2C` [Example 135], 1 to 5 µM. Under `Cn1c(C(N)c2ccccc2)nc2c1c(=O)n(Cc1cc3c(Cl)cccc3[nH]1)c(=O)n2C` (centres unmarked) [Example 411, 8-(amino(phenyl)methyl)-1-((4-chloro-1H-indol-2-yl)methyl)-3,7-dimethyl-1H-purine-2,6(3H,7H)-dione] stands 0.01 to 1 µM.

For `Cn1c(NCc2cnccn2)nc2c1c(=O)n(Cc1ccc(Cl)c(Cl)c1)c(=O)n2C` [Example 116, 1-(3,4-dichlorobenzyl)-3,7-dimethyl-8-(pyrazin-2-ylmethylamino)-1H-purine-2,6(3H,7H)-dione], the IC50 is 1 to 5 µM. `Cn1c(NC2CCCC(C(=O)O)C2)nc2c1c(=O)n(Cc1cc3c(Cl)cccc3[nH]1)c(=O)n2C` (centres unmarked) [Example 308, 3-(1-((4-chloro-1H-indol-2-yl)methyl)-3,7-dimethyl-2,6-dioxo-2,3,6,7-tetrahydro-1H-purin-8-ylamino)cyclohexanecarboxylic acid]: the IC50 lay in the range of 0.01 to 1 µM.

`Cn1c(Nc2cc[nH]c(=O)n2)nc2c1c(=O)n(Cc1cc3ccccc3[nH]1)c(=O)n2C` [Example 189, 1-((1H-indol-2-yl)methyl)-3,7-dimethyl-8-(2-oxo-1,2-dihydropyrimidin-4-ylamino)-1H-purine-2,6(3H,7H)-dione] showed an IC50 of 0.01 to 1 µM.

The molecule `Cn1c(N[C@H]2CCC[C@@H](O)C2)nc2c1c(=O)n(Cc1ccc(Cl)c(Cl)c1)c(=O)n2C` (racemic) [Example 173, (±)-1-(3,4-dichlorobenzyl)-8-((cis)-3-hydroxycyclohexylamino)-3,7-dimethyl-1H-purine-2,6(3H,7H)-dione] had an IC50 of 0.01 to 1 µM.

Consider `Cn1c(Nc2ccc(N3CCNCC3)cn2)nc2c1c(=O)n(Cc1cc3c(Cl)cccc3[nH]1)c(=O)n2C` [Example 392, 1-[(4-chloro-1H-indol-2-yl)methyl]-3,7-dimethyl-8-[(5-piperazin-1-yl-2-pyridyl)amino]purine-2,6-dione], for which the IC50 was 0.01 to 1 µM. `Cn1c(C(N)C2COC2)nc2c1c(=O)n(Cc1cc3c(Cl)cccc3[nH]1)c(=O)n2C` (centres unmarked) [Example 467, 8-[amino(oxetan-3-yl)methyl]-1-[(4-chloro-1H-indol-2-yl)methyl]-3,7-dimethyl-purine-2,6-dione] registered an IC50 of 5 to 10 µM. Under `Cn1c(N[C@H](CO)CC2CCCCC2)nc2c1c(=O)n(Cc1ccc(Cl)c(Cl)c1)c(=O)n2C` [Example 121, (S)-8-(1-cyclohexyl-3-hydroxypropan-2-ylamino)-1-(3,4-dichlorobenzyl)-3,7-dimethyl-1H-purine-2,6(3H,7H)-dione] stands 0.01 to 1 µM; under `C[C@@H](O)CNc1nc2c(c(=O)n(Cc3ccc(Cl)cc3)c(=O)n2C)n1C` [Example 17, 1-[(4-chlorophenyl)methyl]-8-{[(2R)-2-hydroxypropyl]amino}-3,7-dimethyl-2,3,6,7-tetrahydro-1H-purine-2,6-dione], 5 to 10 µM; under `Cn1c(N[C@@H]2CC[C@H](C(=O)O)C2)nc2c1c(=O)n(Cc1ccc(C(F)(F)F)cc1)c(=O)n2C` [Example 77, (1S,3R)-3-[(3,7-dimethyl-2,6-dioxo-1-{[4-(trifluoromethyl)phenyl]methyl}-2,3,6,7-tetrahydro-1H-purin-8-yl)amino]cyclopentane-1-carboxylic acid], 1 to 5 µM. Consider `Cn1c(N[C@H]2CC[C@@H](O)C2)nc2c1c(=O)n(Cc1ccc(Cl)c(Cl)c1)c(=O)n2C` (single isomer, unassigned) [Example 71, 1-(3,4-dichlorobenzyl)-8-((1S,3R)-3-hydroxycyclopentylamino)-3,7-dimethyl-1H-purine-2,6(3H,7H)-dione or 1-(3,4-dichlorobenzyl)-8-((1R,3S)-3-hydroxycyclopentylamino)-3,7-dimethyl-1H-purine-2,6(3H,7H)-dione], for which the IC50 is 0.01 to 1 µM. For `Cn1c(NC2CCCC(CO)C2)nc2c1c(=O)n(Cc1ccc(Cl)c(Cl)c1)c(=O)n2C` (racemic) [Example 254, (±)-1-(3,4-dichlorobenzyl)-8-(3-(hydroxymethyl)cyclohexylamino)-3,7-dimethyl-1H-purine-2,6(3H,7H)-dione] the value was 0.01 to 1 µM; for `COc1ccc2[nH]c(Cn3c(=O)c4c(nc(N)n4C)n(C)c3=O)cc2c1` [Example 243, 8-amino-1-((5-methoxy-1H-indol-2-yl)methyl)-3,7-dimethyl-1H-purine-2,6(3H,7H)-dione], greater than 10 µM. For `Cn1c(N[C@H]2CC[C@@H](O)C2)nc2c1c(=O)n(Cc1ccc(C(F)(F)F)cc1)c(=O)n2C` (single isomer, unassigned) [Example 133, 8-((1S,3R)-3-hydroxycyclopentylamino)-3,7-dimethyl-1-(4-(trifluoromethyl)benzyl)-1H-purine-2,6(3H,7H)-dione or 8-((1R,3S)-3-hydroxycyclopentylamino)-3,7-dimethyl-1-(4-(trifluoromethyl)benzyl)-1H-purine-2,6(3H,7H)-dione] the value was 1 to 5 µM. For `Cn1c(N[C@H]2CC[C@@H](O)C2)nc2c1c(=O)n(Cc1ccc(Cl)c(Cl)c1)c(=O)n2C` (single isomer, unassigned) [Example 43, 1-(3,4-dichlorobenzyl)-8-((1S,3R)-3-hydroxycyclopentylamino)-3,7-dimethyl-1H-purine-2,6(3H,7H)-dione or 1-(3,4-dichlorobenzyl)-8-((1R,3S)-3-hydroxycyclopentylamino)-3,7-dimethyl-1H-purine-2,6(3H,7H)-dione] the value was 0.01 to 1 µM. On to `Cn1c(Nc2ccccn2)nc2c1c(=O)n(Cc1ccc(Cl)c(Cl)c1)c(=O)n2C` [Example 146, 1-(3,4-dichlorobenzyl)-3,7-dimethyl-8-(pyridin-2-ylamino)-1H-purine-2,6(3H,7H)-dione], for which the IC50 was in the range of 0.01 to 1 µM. Consider `Cn1cnc2c1c(=O)n(Cc1cc3ccccc3[nH]1)c(=O)n2C` [Example 234, 1-((1H-indol-2-yl)methyl)-3,7-dimethyl-1H-purine-2,6(3H,7H)-dione], for which the IC50 was in the range of 1 to 5 µM. For `Cn1cnc2c1c(=O)n(Cc1cc3cc(C#N)ccc3[nH]1)c(=O)n2C` [Example 257, 2-((3,7-dimethyl-2,6-dioxo-2,3,6,7-tetrahydro-1H-purin-1-yl)methyl)-1H-indole-5-carbonitrile], the IC50 was in the range of 1 to 5 µM. For `Cn1c(Nc2cccc(CCC(=O)O)n2)nc2c1c(=O)n(Cc1cc3c(Cl)cccc3[nH]1)c(=O)n2C` [Example 294, 3-(6-(1-((4-chloro-1H-indol-2-yl)methyl)-3,7-dimethyl-2,6-dioxo-2,3,6,7-tetrahydro-1H-purin-8-ylamino)pyridin-2-yl)propanoic acid] the value was 0.01 to 1 µM; for `Cn1c(C2CCNC2)nc2c1c(=O)n(Cc1[nH]c3cccc(Cl)c3c1Cl)c(=O)n2C` (centres unmarked) [Example 423, 1-((3,4-dichloro-1H-indol-2-yl)methyl)-3,7-dimethyl-8-(pyrrolidin-3-yl)-1H-purine-2,6(3H,7H)-dione], 0.01 to 1 µM. Under `Cn1c(Cn2c(=O)c3c(nc(N[C@H]4CC[C@@H](O)C4)n3C)n(C)c2=O)cc2ccccc21` (racemic) [Example 179, (±)-8-((cis)-3-hydroxycyclopentylamino)-3,7-dimethyl-1-((1-methyl-1H-indol-2-yl)methyl)-1H-purine-2,6(3H,7H)-dione] stands 0.01 to 1 µM; under `COc1cccc2[nH]c(Cn3c(=O)c4c(nc(Nc5ccncc5)n4C)n(C)c3=O)cc12` [Example 370, 1-((4-methoxy-1H-indol-2-yl)methyl)-3,7-dimethyl-8-(pyridin-4-ylamino)-1H-purine-2,6(3H,7H)-dione], 0.01 to 1 µM. In turn, `Cn1c(=O)n(Cc2ccc(Cl)c(Cl)c2)c(=O)c2c1nc(NC1CCCC(C(=O)O)C1)n2CCO` (centres unmarked) [Example 316, 3-(1-(3,4-dichlorobenzyl)-7-(2-hydroxyethyl)-3-methyl-2,6-dioxo-2,3,6,7-tetrahydro-1H-purin-8-ylamino)cyclohexanecarboxylic acid] returned an IC50 of 0.01 to 1 µM.

On to `Cn1c(=O)n(Cc2ccc(Cl)c(Cl)c2)c(=O)c2c1nc(NC1CCCC(C(=O)O)C1)n2CC(=O)O` (centres unmarked) [Example 307, 3-(7-(carboxymethyl)-1-(3,4-dichlorobenzyl)-3-methyl-2,6-dioxo-2,3,6,7-tetrahydro-1H-purin-8-ylamino)cyclohexanecarboxylic acid], for which the IC50 lay in the range of 1 to 5 µM. Under `Cn1c(Nc2ccncn2)nc2c1c(=O)n(Cc1cc3c(Cl)cccc3[nH]1)c(=O)n2C` [Example 362, 1-((4-chloro-1H-indol-2-yl)methyl)-3,7-dimethyl-8-(pyrimidin-4-ylamino)-3,7-dihydro-1H-purine-2,6-dione] stands 0.01 to 1 µM.
